{
  "source": "patent US20080161607A1",
  "about": "(Teva Pharmaceuticals USA, Inc., priority 2002, published 2008)",
  "key": {"[1]": {"test": "Storage stability of bulk sertraline hydrochloride Form II; polymorph content by XRPD", "settings": "for Polymorph Content of bulk sertraline hydrochloride, content of Form I (in parentheses) / Polymorph Content of bulk sertraline hydrochloride, Polymorphic Form detected (I or II): 40° C., 75% RH; for Polymorph Content of bulk sertraline hydrochloride, content of Form I (in parentheses): Form I relative to all sertraline hydrochloride", "from_the_text": "X-Ray powder diffraction data was obtained by using a SCINTAG powder X-Ray diffractometer model X′TRA equipped with a solid state detector. Copper radiation of 1.5418 Å was used. The diffractometer was equipped with a round aluminum sample holder with round zero background quartz plate having a cavity of 25(diameter)*0.5(depth) mm."}, "[2]": {"settings": "granulation in isopropyl alcohol, ethyl acetate, hexane at 40 E to 60 E C; disclosed in U.S. Pat. No. 5,248,699; cited from earlier work"}},
  "data": [
    {"compound": "CN[C@H]1CC[C@@H](c2ccc(Cl)c(Cl)c2)c2ccccc21.Cl", "note": "[sertraline hydrochloride]", "values": [
      {"measurement": "stability during storage under stress conditions", "setting": "[1]; Form II containing at least about 1% w/w Form I", "value": "not stable"}
    ]},
    {"compound": "CN[C@H]1CC[C@@H](c2ccc(Cl)c(Cl)c2)c2ccccc21.Cl", "note": "[Form II, (1S-cis)-4-(3,4 dichlorophenyl)-1,2,3,4-tetrahydro-N-methyl-1-naphthalenamine hydrochloride]", "values": [
      {"measurement": "result of granulation", "setting": "[2]", "value": "conversion to Form I"}
    ]},
    {"compound": "CN[C@H]1CC[C@@H](c2ccc(Cl)c(Cl)c2)c2ccccc21.Cl", "note": "[Example 1, (1S-cis)-4-(3,4 dichlorophenyl)-1,2,3,4-tetrahydro-N-methyl-1-naphthalenamine hydrochloride]", "values": [
      {"measurement": "Polymorph Content of bulk sertraline hydrochloride, content of Form I (in parentheses)", "setting": "[1]; 1 month", "value": "< 1", "unit": "%"},
      {"measurement": "Polymorph Content of bulk sertraline hydrochloride, Polymorphic Form detected (I or II)", "setting": "[1]; 1 month, hydrochloride", "value": "II > I"},
      {"measurement": "Polymorph Content of bulk sertraline hydrochloride, content of Form I (in parentheses)", "setting": "[1]; 2 months", "value": 2, "unit": "%"},
      {"measurement": "Polymorph Content of bulk sertraline hydrochloride, Polymorphic Form detected (I or II)", "setting": "[1]; 2 months, hydrochloride", "value": "II > I"},
      {"measurement": "Polymorph Content of bulk sertraline hydrochloride, Polymorphic Form detected (I or II)", "setting": "[1]; 3 months", "value": "II > I"},
      {"measurement": "Polymorph Content of bulk sertraline hydrochloride, content of Form I (in parentheses)", "setting": "[1]; 3 months", "value": 2, "unit": "%"},
      {"measurement": "Polymorph Content of bulk sertraline hydrochloride, Polymorphic Form detected (I or II)", "setting": "[1]; 4 months", "value": "II > I"},
      {"measurement": "Polymorph Content of bulk sertraline hydrochloride, content of Form I (in parentheses)", "setting": "[1]; 4 months", "value": 4, "unit": "%"},
      {"measurement": "Polymorph Content of bulk sertraline hydrochloride, content of Form I (in parentheses)", "setting": "[1]; t = 0", "value": "< 1", "unit": "%"},
      {"measurement": "Polymorph Content of bulk sertraline hydrochloride, Polymorphic Form detected (I or II)", "setting": "[1]; t = 0, hydrochloride", "value": "II > I"}
    ]}
  ]
}
